# Results: ChEMBL document CHEMBL5579827, “Discovery of orally bioavailable phenyltetrazolium derivatives for the acute treatment and the secondary prevention of ischemic stroke” (Eur J Med Chem, 2024)
# Key:
# [1] = test system: N2a; assay: Neuroprotective activity against OGD/R induced cell injury in mouse N2a cells assessed as cell viability at 10 uM preincubated under hypoxic condition for 2 hrs and measured after 24 hrs (reference value: 28.66 to 30.22 %); format: functional; settings: time 26 hrs, read-out: Activity
# [2] = Tmax in Sprague-Dawley rat at 10 mg/kg, po measured upto 8 hrs by LC-MS/MS analysis; format: ADME, organism-based; settings: Sprague-Dawley, in vivo, read-out: Tmax
# [3] = Half-life in Sprague-Dawley rat at 10 mg/kg, po measured upto 8 hrs by LC-MS/MS analysis; format: ADME, organism-based; settings: Sprague-Dawley, in vivo
# [4] = AUC(0 to t) in Sprague-Dawley rat at 10 mg/kg, po measured upto 8 hrs by LC-MS/MS analysis; format: ADME, organism-based; settings: in vivo
# [5] = Cmax in Sprague-Dawley rat at 10 mg/kg, po measured upto 8 hrs by LC-MS/MS analysis; format: ADME, organism-based; settings: Sprague-Dawley, in vivo, read-out: Cmax
# [6] = AUC(0 to infinity) in Sprague-Dawley rat at 10 mg/kg, po measured upto 8 hrs by LC-MS/MS analysis; format: ADME, organism-based; settings: Sprague-Dawley, in vivo
# [7] = test system: Mus musculus; assay: Neuroprotective activity against tMCAO-reperfusion induced brain injury in SPF C57 mouse model assessed as reduction in infarct volume at 10 mg/kg, iv measured after 24 hrs; format: functional; set-up: scale not given: the % may be the effect or the level left
# [8] = test system: N2a; assay: Neuroprotective activity against OGD/R induced cell injury in mouse N2a cells assessed as decrease in apoptotic ratio at 10 uM incubated for 24 hrs; format: functional; set-up: scale not given: the % may be the effect or the level left
Tmax [2],AUC(0-t) at 8 h [4],SMILES,viability at 10 µM [1],further results
15 min,–,CCCCC(O)c1ccc(Br)cc1-c1nnn(CC)n1 (configuration not stated),53.6%,–
–,–,CCCCCC(O)c1ccccc1-c1nn[nH]n1 (configuration not stated),35.6%,–
–,–,CCCCC(O)c1ccccc1-c1cc[nH]n1 (configuration not stated),39.5%,–
15 min,26500 ng·h/mL,CCCCC(O)c1ccccc1-c1nn[nH]n1 (configuration not stated),40.5%,half-life [3]: 279 min; Cmax [5]: 12200 ng/mL; AUC(0-inf) [6]: 37100 ng·h/mL
15 min,2670 ng·h/mL,CCCCC(O)c1ccc(F)cc1-c1nn[nH]n1 (configuration not stated),35.1%,–
–,–,CCCCC(O)c1ccccc1-c1cccs1 (configuration not stated),35.4%,–
–,–,CCCCC(O)c1ccccc1-c1ccc[nH]1 (configuration not stated),38.6%,–
–,–,CCCCC1OC(=O)c2ccccc21 (stereo not drawn) [RAC-3-N-BUTYLPHTHALIDE],36.6%,Activity [7]: 25.43%; Activity [8]: 130.83%
15 min,2670 ng·h/mL,CCCCCC(O)c1ccc(Br)cc1-c1nn[nH]n1 (configuration not stated),38%,Cmax [5]: 13600 ng/mL
